Where only a bound is given, the exact number is not on record here.

Here are results for 22 compounds from patent US11242344B2, “(4-hydroxypyrrolidin-2-yl)-heterocyclic compounds and methods of use thereof” (Genentech, Inc., priority 2017, dated 2022).

One assay concerns the target VHL Elongin B/C complex (Homo sapiens (Human), UniProt P40337). Description: Fluorescence Polarization (FP) VHL Binding Assay. The following applies: VHL binding, FP assay; geometric mean where more than one measurement. The method, then: The binding of test compounds to the VHL Elongin B/C complex was measured using a fluorescence polarization tracer competition assay. The VHL/Elongin B/C protein complex used in the assay was generated as follows. The coding region for amino acids E55-D213 of human VHL with N-terminal His6 tag with a TEV-protease cleavage site was co-expressed with Elongin B (residues M1-Q118) and Elongin C (Residues M17-C112) in E. coli. […] The purified VHL/Elongin B/C complex was dialyzed into formulation buffer: 20 mM Bis-Tris pH7.0, 150 mM NaCl, 1 mM DTT. A VHL fluorescence polarization probe (prepared in Example 91), consisted of a VHL ligand coupled to carboxytetramethylrhodamine (TAMRA); […] Compounds were prepared as a serial dilution in DMSO at a concentration 25-fold higher than the final desired concentration and acoustically dispensed (400 nl) into a ProxiPlate-384 Plus F, Black 384-shallow well Microplate (Part Number 6008260). DMSO was dispensed into wells designated for “VHL control” (without compound) wells. The “Assay Buffer” consisted of 50 mM Tris pH 8.0, 120 mM NaCl, 0.005% Nonidet P-40, and 1% DMSO (v/v). Assay Buffer containing […] VHL Elongin B/C complex was prepared and 5 μl dispensed using a BioRapTR (Beckman Coulter) into each well of the assay plate. Assay Buffer was also dispensed into “no VHL control” wells using the same method. A “pre-assay” fluorescence measurement was made using an Infinite® M1000 (Tecan) plate reader (Excitation 530 nm, Emission 574 nm, Bandwidth 10 nm). Assay Buffer containing 3.34 nM of the VHL FP probe was prepared in Assay Buffer and 5 μl dispensed into each well of the assay plate using a BioRapTR (Beckman Coulter). The final VHL/Elongin B/C protein concentration is 2.64 nM and the final probe concentration is 1.67 nM. Assay plates were briefly centrifuged and incubated for 1 hour at room temperature. “Post-assay” fluorescence polarization measurements were made as described for the “pre-assay” fluorescence measurement. Fluorescence polarization was calculated for each sample; taking into account the “pre-assay” fluorescence measurements and subtracting the fluorescence signal of the compound/VHL only (“pre-assay”) measurements from the “post-assay” fluorescence polarization measurements, for each plane of polarization. The data were analyzed using Genedata Screener software and normalized to the “no VHL control” and “VHL control” (without compound). IC50 values were calculated using a four parameter curve fit (Robust method).

Assay [1] concerns the target NanoLuc VHL fusion protein (Homo sapiens (Human), UniProt P40337). Nature of the assay: VHL HEK-293 BRET Assay (NanoBRET Target Engagement). The class given is cell-based. As to conditions: geometric mean where more than one measurement. The method, then:
The VHL NanoBRET™ Target Engagement Assay analyzes the apparent affinity of test compounds for VHL in cells by competitive displacement of a VHL NanoBRET™ tracer reversibly bound to a NanoLuc® VHL fusion protein stably expressed in the cells. Test compounds were transferred to the assay plate (384 Well White Non-Binding Corning Assay Plates (Corning-3574)) using an Echo 555 Liquid Handler (Labcyte) in 2.5 nL increments and, as appropriate, intermediate stock concentrations of compounds, in order to prepare a titration series. 50 nL of control compound (10 mM; parental unlabeled VHL antagonist; see structure below) and 50 nL of DMSO (negative control) were dispensed into the appropriate control wells. DMSO was backfilled to a final volume of 50 nL as required. 50 nl per well of 1 mM VHL NanoBRET™ Tracer in DMSO (NanoBRET™ Tracer-PEG2-590 (see structure below)) was transferred into each well using an Echo 555 (ultimately yielding a final concentration of 1 uM). HEK 293 RT VHL-NanoLuc® stable cells were cultured in DMEM High Glucose with Pyruvate, 10% fetal bovine serum, 2 mg/mL of Geneticin Selective Antibiotic (50 mg/ml) and 2 mM HEPES (1 M). Cells were seeded in Opti-MEM (Life Technologies-11058-021), 1.7×10^5 cells/mL, 40 μl per well into the assay plate, centrifuged at 500 rpm for 30 seconds and incubated for 2 hours. Max Signal control wells consisted of DMSO only treated wells. Minimum Signal control wells contained of 10 uM parental unlabeled VHL antagonist (control compound—see structure below). 3× Complete Substrate plus Inhibitor Solution was prepared in Opti-MEM (consists of a 1:166 dilution of NanoBRET™ Nano-Glo® Substrate plus a 1:500 dilution of Extracellular NanoLuc® Inhibitor in Opti-MEM), and 20 ul was dispensed into each well of the 384-well plate and centrifuged at 1000 rpm for 1 minute, then incubated for 2 minutes at room temperature. Background Signal control wells were prepared without tracer for background correction steps. Plates were read using a PerkinElmer Envision Reader (model 2104-0020) equipped with Luminescence option (Mirror: BRET2 Enh (PE Barcode 659), Emission Filter: Omega 610LP (Barcode 504), 2nd Emission Filter: Umbelliferone 460 (Barcode 207), Measurement height: 6.5 mm, Measurement time: 1 s). The raw BRET ratio values were calculated by dividing the acceptor emission value (610 nm) by the donor emission value (460 nm) for each sample. To correct for background, the BRET ratio in the absence of tracer (average of no-tracer control samples) was subtracted from the BRET ratio of each sample. Raw BRET units were converted to milliBRET units (mBU) by multiplying each raw BRET value by 1,000. The normalized NanoBRET™ signal was calculated relative to the Max Signal control wells (DMSO treated control wells) and the Minimum Signal control wells. Percentage inhibition was calculated relative to the Minimum Signal control and Maximum Signal control wells. IC50 values were derived by four parameter curve fitting using the Robust method.

Assay [2] deals with VHL co-expressed with Elongins B and C (Homo sapiens (Human), UniProt P40337). Nature of the assay: Surface Plasmon Resonance Assay. Type of assay: binding. As to conditions: SPR measured VHL affinity; geometric mean where more than one measurement. The method, then: Using a Biacore T200, […] tagged VHL co-expressed with Elongins B and C were immobilized to a Biacore SA chip in running buffer without DMSO. Compounds were tested individually at varying concentrations in running buffer (50 mM HEPES pH 7.2, 150 mM NaCl, 0.5 mM TCEP, 0.001% Tween 20, 0.2% PEG3350, 2% DMSO) at 20° C. Sensorgrams were run in order from low to high concentration using a flow rate of 80 μL/min. Association and disassociation times were varied depending on the estimated potency of the compound tested. […] Galdeano et al, J. Med. Chem. 2014, 57, 8657-8663, herein incorporated by reference) which retained greater than 75% of the activity over the course of the run. Analysis of the binding curves and determination of the kinetic parameters were done using evaluation software (Version 2.0, Biacore).
VHL co-expressed with Elongins B and C, sequence (P40337 whole entry, looked up): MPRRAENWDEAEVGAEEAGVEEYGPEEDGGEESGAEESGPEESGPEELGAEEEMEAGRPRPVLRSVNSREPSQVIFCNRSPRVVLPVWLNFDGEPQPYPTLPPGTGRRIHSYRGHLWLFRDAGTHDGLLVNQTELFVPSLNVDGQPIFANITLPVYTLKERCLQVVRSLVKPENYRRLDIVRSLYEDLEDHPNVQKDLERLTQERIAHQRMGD
VHL co-expressed with Elongins B and C, sequence (Q15370 whole entry partner, looked up): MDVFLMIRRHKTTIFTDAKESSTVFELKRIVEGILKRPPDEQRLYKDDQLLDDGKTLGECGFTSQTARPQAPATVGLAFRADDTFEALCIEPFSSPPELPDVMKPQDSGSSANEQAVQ
VHL co-expressed with Elongins B and C, sequence (Q15369 whole entry partner, looked up): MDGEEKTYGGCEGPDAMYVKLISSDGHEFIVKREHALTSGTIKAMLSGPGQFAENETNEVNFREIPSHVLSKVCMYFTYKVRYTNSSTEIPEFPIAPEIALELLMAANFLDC

VHL Elongin B/C complex, sequence (P40337 whole entry, looked up, the tested form may be a part): as the sequence (P40337 whole entry, looked up) above
VHL Elongin B/C complex, sequence (Q15370 whole entry partner, looked up, the tested form may be a part): as the sequence (Q15370 whole entry partner, looked up) above
VHL Elongin B/C complex, sequence (Q15369 whole entry partner, looked up, the tested form may be a part): as the sequence (Q15369 whole entry partner, looked up) above
NanoLuc VHL fusion protein, sequence (P40337 whole entry, looked up, the tested form may be a part): as the sequence (P40337 whole entry, looked up) above
NanoLuc VHL fusion protein, sequence (Q15370 whole entry partner, looked up, the tested form may be a part): as the sequence (Q15370 whole entry partner, looked up) above
NanoLuc VHL fusion protein, sequence (Q15369 whole entry partner, looked up, the tested form may be a part): as the sequence (Q15369 whole entry partner, looked up) above

On to `C#Cc1cccc(Nc2ncnc3cc(OCCOC)c(OCCOCC#CC#CCOc4cc(C(C(=O)N5C[C@H](O)CC5C5=NC(=O)[C@](C)(c6ccc(-c7scnc7C)cc6)N5)C(C)C)on4)cc23)c1` (single isomer, unassigned) [Example 1004.3], for which the IC50 on VHL Elongin B/C complex is 75.8 µM; in assay [1] it was ≥ 100 µM.

With `Cc1cc(C(C(=O)N2C[C@H](O)CC2C2=NS(=O)(=O)CN2)C(C)C)on1` (single isomer, unassigned) [Example 137.3], the IC50 at VHL Elongin B/C complex is ≥ 400 µM; in assay [1] it was ≥ 100 µM.

In the case of `Cc1cc([C@H](C(=O)N2C[C@H](O)CC2C2=NOC3(CCCc4ccccc43)N2)C(C)C)on1` (single isomer, unassigned) [Example 131.4], the IC50 on VHL Elongin B/C complex is 19.9 µM; in assay [1], 20 µM.

Consider `Cc1cc(C(C(=O)N2C[C@H](O)C[C@H]2C2=NO[C@](C)(c3ccc(-c4ccccc4F)cc3)N2)C(C)C)on1` (single isomer, unassigned) [Example 139.2], for which the results for the IC50 (on VHL Elongin B/C complex; in assay [1]) were 0.0628 µM and 0.0678 µM, respectively.

Turning to `Cc1cc([C@@H](C(=O)N2C[C@H](O)CC2C2=NOC3(CCCc4ccccc43)N2)C(C)C)on1` (single isomer, unassigned) [Example 131.1], the results for the IC50 (at VHL Elongin B/C complex; in assay [1]) were 160 µM and 100 µM, respectively.

Regarding `Cc1cc([C@@H](C(=O)N2C[C@H](O)CC2C2=NOC3(CCCc4ccccc43)N2)C(C)C)on1` (single isomer, unassigned) [Example 131.2], the IC50 at VHL Elongin B/C complex amounted to 242 µM; in assay [1], 100 µM.

For the compound `Cc1cc(C(C(=O)N2C[C@H](O)CC2C2=NS(=O)(=O)CN2)C(C)C)on1` (single isomer, unassigned) [Example 137.1], the IC50 was ≥ 400 µM on VHL Elongin B/C complex and ≥ 100 µM in assay [1].

For `Cc1cc(C(C(=O)N2C[C@H](O)CC2C2=NC(=O)C(C)(c3ccc(-c4cccnc4)cc3)N2)C(C)C)on1` (single isomer, unassigned) [Example 105.3], at VHL Elongin B/C complex, the IC50 is > 400 µM. Also, the Kd in assay [2] is > 150 µM.

As for `CC(=O)N[C@H](C(=O)N1C[C@H](O)CC1C1=NC(=O)C(C)(c2ccc(-c3scnc3C)cc2)N1)C(C)(C)C` (single isomer, unassigned) [Example 102.1], the IC50 on VHL Elongin B/C complex worked out at 6.17 µM. In addition, in assay [2], binding was put at a Kd of 1.96 µM.

As to `Cc1cc(C(C(=O)N2C[C@H](O)CC2C2=NC(=O)C(C)(c3ccc(-c4scnc4C)cc3)N2)C(C)C)on1` (single isomer, unassigned) [Example 104.2], the IC50 on VHL Elongin B/C complex is > 400 µM. Also, the Kd in assay [2] was > 150 µM.

`C#Cc1cccc(Nc2ncnc3cc(OCCOC)c(OCCOCC#CC#CCOc4cc(C(C(=O)N5C[C@H](O)CC5C5=NC(=O)[C@](C)(c6ccc(-c7scnc7C)cc6)N5)C(C)C)on4)cc23)c1` (single isomer, unassigned) [Example 1004.1]: the IC50 on VHL Elongin B/C complex amounted to 6.25 µM; in assay [1] it was 68.3 µM.

In the case of `CC(=O)N[C@H](C(=O)N1C[C@H](O)CC1C1=NC(=O)C(C)(c2ccc(Br)cc2)N1)C(C)(C)C` (single isomer, unassigned) [Example 101.2], the IC50 on VHL Elongin B/C complex is > 200 µM. This compound also came in with a Kd in assay [2] of 41.6 µM.

For `Cc1cc(C(C(=O)N2C[C@H](O)CC2C2=NC(=O)C(C)(c3ccc(Br)cc3)N2)C(C)C)on1` (single isomer, unassigned) [Example 103.2], the concentration for half-maximal inhibition (IC50) on VHL Elongin B/C complex was > 400 µM. In addition, the equilibrium dissociation constant (Kd) in assay [2] was > 150 µM.

`Cc1cc(C(C(=O)N2C[C@H](O)CC2C2=NC(=O)C(C)(c3ccc(-c4cccc(=O)n4C)cc3)N2)C(C)C)on1` (single isomer, unassigned) [Example 108.3]: the IC50 at VHL Elongin B/C complex was > 400 µM. Besides, the Kd in assay [2] was > 0.3 µM.

In turn, `Cc1cc(C(C(=O)N2C[C@H](O)CC2C2=NC(=O)C(C)(c3ccc(-c4cccnc4)cc3)N2)C(C)C)on1` (single isomer, unassigned) [Example 105.1] had an IC50 at VHL Elongin B/C complex of 375 µM. This compound gave an equilibrium dissociation constant (Kd) in assay [2] of 241 µM.

`Cc1cc(C(C(=O)N2C[C@H](O)CC2C2=NC(=O)C(C)(c3ccc(Br)cc3)N2)C(C)C)on1` (single isomer, unassigned) [Example 103.4] showed an IC50 on VHL Elongin B/C complex of 6.73 µM. The same compound came in with a Kd in assay [2] of 1.09 µM.

On VHL Elongin B/C complex, `Cc1cc(C(C(=O)N2C[C@H](O)CC2C2=NC(=O)C(C)(c3ccc(Br)cc3)N2)C(C)C)on1` (single isomer, unassigned) [Example 103.3] gave a half-maximal inhibitory concentration (IC50) of 292 µM. Also, in assay [2], the Kd is > 150 µM.

In the case of `C#Cc1cccc(Nc2ncnc3cc(OCCOC)c(OCCOCC#CC#CCOc4cc(C(C(=O)N5C[C@H](O)CC5C5=NC(=O)[C@](C)(c6ccc(-c7scnc7C)cc6)N5)C(C)C)on4)cc23)c1` (single isomer, unassigned) [Example 1004.2], the figures for the IC50 (at VHL Elongin B/C complex; in assay [1]) were 75.8 µM and 46.4 µM, respectively.

As for `Cc1cc(C(C(=O)N2C[C@H](O)CC2C2=NC(=O)C(C)(c3ccc(-c4scnc4C)cc3)N2)C(C)C)on1` (single isomer, unassigned) [Example 104.1], on VHL Elongin B/C complex, the 50% inhibitory concentration (IC50) was 203 µM. The compound further came in with a Kd in assay [2] of 35.9 µM.

For `Cc1cc(C(C(=O)N2C[C@H](O)CC2C2=NC(=O)C(C)(c3ccc(-c4scnc4C)cc3)N2)C(C)C)on1` (single isomer, unassigned) [Example 104.3], the IC50 on VHL Elongin B/C complex was 230 µM. The same compound yielded a dissociation constant Kd in assay [2] of 44.6 µM.

`Cc1cc([C@@H](C(=O)N2C[C@H](O)C[C@H]2C2=NOC(c3ccc(Br)cc3)(C(F)(F)F)N2)C(C)C)on1` (single isomer, unassigned) [Example 133.2]: the IC50 at VHL Elongin B/C complex is ≥ 400 µM. Moreover, the Kd in assay [2] was ≥ 150 µM.

Regarding `Cc1cc(C(C(=O)N2C[C@H](O)CC2C2=NC(=O)C(C)(c3ccc(Br)cc3)N2)C(C)C)on1` (single isomer, unassigned) [Example 103.1], the IC50 at VHL Elongin B/C complex is > 400 µM. In assay [2], the dissociation constant (Kd) is > 150 µM.

Usually IC50 stands for the concentration needed to halve the response being measured. A low value points to higher potency. For orientation: Kd means the equilibrium constant for the complex coming apart. A low value points to higher affinity.
